Laboratory results published in patent publication US9604996B2 (Bayer Pharma Aktiengesellschaft, priority 2013, dated 2017).

How the values were obtained:
[1] = tested on: IL-6 release by human fibroblast cell line LL29; assay: NECA-induced IL-6 release by LL29 fibroblasts (ELISA); format: cell-based; conditions: NECA 10 μM, 24 hours incubation, IL-6 ELISA of supernatant, in some cases means, rounded to two significant digits
Experimental: B-2. Measurement of NECA-Induced IL-6 Release by LL29 Fibroblasts
Stimulation of fibroblasts with adenosine or the adenosine analog 5′-N-ethylcarboxamidoadenosine (NECA) leads to release of the pro-inflammatory and pro-fibrotic cytokine IL-6 which can be prevented by inhibition of the A2b receptor.
Accordingly, confluent cells of the human fibroblast cell line LL29 were treated with the test substances and stimulated with NECA (10 μM). After an incubation time of 24 hours, the cell supernatant is removed and human IL-6 in the cell supernatant is determined by ELISA (Quantikine® IL6 ELISA, R&D Systems, Minneapolis, USA).

[2] = biological target: T1, human adenosine A2b receptor (Homo sapiens, UniProt P29275); assay: Cellular reporter gene (CRE-luciferase) A2b receptor antagonist assay in recombinant CHO-K1 cells stimulated with NECA; format: cell-based; conditions: recombinant CHO-K1 cell line, co-incubation with EC50 concentration of NECA, 3 hours, in some cases means, rounded to two significant digits
T1 construct: expressed in transfected cells; host or cells: CHO-K1 (Chinese Hamster Ovary) with CRE-luciferase reporter
T1 sequence (P29275 1-332): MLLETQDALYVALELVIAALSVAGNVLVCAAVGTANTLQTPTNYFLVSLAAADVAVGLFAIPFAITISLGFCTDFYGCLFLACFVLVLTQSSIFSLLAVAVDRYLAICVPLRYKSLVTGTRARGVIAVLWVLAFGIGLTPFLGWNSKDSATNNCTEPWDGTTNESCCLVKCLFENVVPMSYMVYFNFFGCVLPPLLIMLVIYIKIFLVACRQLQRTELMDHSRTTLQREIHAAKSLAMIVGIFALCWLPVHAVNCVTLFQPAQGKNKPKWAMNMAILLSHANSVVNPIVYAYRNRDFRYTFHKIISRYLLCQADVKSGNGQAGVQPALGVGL
Summary of the method: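 CHO-K1 cells expressing human A2b receptor with a CRE-driven firefly luciferase reporter, co-incubated with test compound and NECA at its same-day EC50 concentration. Luminescence read 3 hours after NECA addition.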

Row | SMILES | IC50 [2] [nM] | IC50 [1] [nM]
1 | Cc1c(C(=O)N2CCC(O)CC2)sc2c1c(=O)n(CCc1ccccc1)c(=O)n2CCC=C(F)F [Example 2, 1-(4,4-Difluorobut-3-en-1-yl)-6-[(4-hydroxypiperidin-1-yl)carbonyl]-5-methyl-3-(2-phenylethyl)thieno[2,3-d]pyrimidine-2,4(1H,3H)-dione] | 44 | 53
2 | Cc1c(C(=O)N2CCNC(=O)C2)sc2c1c(=O)n(CCc1ccccc1Cl)c(=O)n2CCC=C(F)F [Example 32, 3-[2-(2-Chlorophenyl)ethyl]-1-(4,4-difluorobut-3-en-1-yl)-5-methyl-6-[(3-oxopiperazin-1-yl)carbonyl]thieno[2,3-d]pyrimidine-2,4(1H,3H)-dione] | 110 | 230
3 | CCn1c(=O)c2c(C)c(C(=O)N3CCC(O)(CO)CC3)sc2n(CCC(F)(F)F)c1=O [Example 74, 3-Ethyl-6-{[4-hydroxy-4-(hydroxymethyl)piperidin-1-yl]carbonyl}-5-methyl-1-(3,3,3-trifluoropropyl)thieno[2,3-d]pyrimidine-2,4(1H,3H)-dione] | 110 | 250
4 | CCn1c(=O)c2c(C)c(C(=O)N3CCC(O)CC3)sc2n(CCC(F)(F)F)c1=O [Example 18, 3-Ethyl-6-[(4-hydroxypiperidin-1-yl)carbonyl]-5-methyl-1-(3,3,3-trifluoropropyl)thieno[2,3-d]pyrimidine-2,4(1H,3H)-dione] | 57 | 170
5 | Cc1c(C(=O)N2CCC(O)CC2)sc2c1c(=O)n(CCc1cccnc1)c(=O)n2CCC=C(F)F [Example 16, 1-(4,4-Difluorobut-3-en-1-yl)-6-[(4-hydroxypiperidin-1-yl)carbonyl]-5-methyl-3-[2-(pyridin-3-yl)ethyl]thieno[2,3-d]pyrimidine-2,4(1H,3H)-dione] | 38 | 89
6 | Cc1c(C(=O)N2CCC(O)CC2)sc2c1c(=O)n(CCc1ccncc1)c(=O)n2CCC(F)(F)F [Example 54, 6-[(4-Hydroxypiperidin-1-yl)carbonyl]-5-methyl-3-[2-(pyridin-4-yl)ethyl]-1-(3,3,3-trifluoropropyl)thieno[2,3-d]pyrimidine-2,4(1H,3H)-dione] | 76 | 330
7 | Cc1c(C(=O)N2CCNC(=O)C2)sc2c1c(=O)n(CCc1cccnc1)c(=O)n2CCC(F)(F)F [Example 33, 5-Methyl-6-[(3-oxopiperazin-1-yl)carbonyl]-3-[2-(pyridin-3-yl)ethyl]-1-(3,3,3-trifluoropropyl)thieno[2,3-d]pyrimidine-2,4(1H,3H)-dione] | 67 | 140
8 | CCn1c(=O)c2c(C)c(C(=O)N3CCNC(=O)C3)sc2n(CCC(F)(F)F)c1=O [Example 35, 3-Ethyl-5-methyl-6-[(3-oxopiperazin-1-yl)carbonyl]-1-(3,3,3-trifluoropropyl)thieno[2,3-d]pyrimidine-2,4(1H,3H)-dione] | 120 | 250
9 | Cc1cccc(CCn2c(=O)c3c(C)c(C(=O)N4CCC(O)CC4)sc3n(CCC(F)(F)F)c2=O)c1 [Example 11, 6-[(4-Hydroxypiperidin-1-yl)carbonyl]-5-methyl-3-[2-(3-methylphenyl)ethyl]-1-(3,3,3-trifluoropropyl)thieno[2,3-d]pyrimidine-2,4(1H,3H)-dione] | 510 | –
10 | CCn1c(=O)c2c(C(C)F)c(C(=O)N3CCNC(=O)C3)sc2n(CCC(F)(F)F)c1=O (racemic) [Example 147, 3-Ethyl-5-(1-fluoroethyl)-6-[(3-oxopiperazin-1-yl)carbonyl]-1-(3,3,3-trifluoropropyl)thieno[2,3-d]pyrimidine-2,4(1H,3H)-dione] | 100 | –
11 | CCCn1c(=O)c2c(C)c(C(=O)N3CCC(O)(CO)CC3)sc2n(CCC(F)(F)F)c1=O [Example 77, 6-{[4-Hydroxy-4-(hydroxymethyl)piperidin-1-yl]carbonyl}-5-methyl-3-propyl-1-(3,3,3-trifluoropropyl)thieno[2,3-d]pyrimidine-2,4(1H,3H)-dione] | 75 | –

Second part, led by results:

Row | IC50 [2] [nM] | SMILES | IC50 [1] [nM]
12 | 17 | Cc1c(C(=O)N2CCNC(=O)C2)sc2c1c(=O)n(CCc1ccccc1)c(=O)n2CCC(F)(F)F [Example 26, 5-Methyl-6-[(3-oxopiperazin-1-yl)carbonyl]-3-(2-phenylethyl)-1-(3,3,3-trifluoropropyl)thieno[2,3-d]pyrimidine-2,4(1H,3H)-dione] | 53
13 | 26 | O=C1CN(C(=O)c2sc3c(c2C(F)(F)F)c(=O)n(CCc2ccccc2)c(=O)n3CCC(F)(F)F)CCN1 [Example 41, 6-[(3-Oxopiperazin-1-yl)carbonyl]-3-(2-phenylethyl)-5-(trifluoromethyl)-1-(3,3,3-trifluoropropyl)thieno[2,3-d]pyrimidine-2,4(1H,3H)-dione] | 29
14 | 35 | CCc1c(C(=O)N2CCC(O)(CO)CC2)sc2c1c(=O)n(CC)c(=O)n2CCC(F)(F)F [Example 89, 3,5-Diethyl-6-{[4-hydroxy-4-(hydroxymethyl)piperidin-1-yl]carbonyl}-1-(3,3,3-trifluoropropyl)thieno[2,3-d]pyrimidine-2,4(1H,3H)-dione] | 48
15 | 13 | O=C(c1sc2c(c1C(F)(F)F)c(=O)n(CCc1ccccc1)c(=O)n2CCC(F)(F)F)N1CCC(O)CC1 [Example 24, 6-[(4-Hydroxypiperidin-1-yl)carbonyl]-3-(2-phenylethyl)-5-(trifluoromethyl)-1-(3,3,3-trifluoropropyl)thieno[2,3-d]pyrimidine-2,4(1H,3H)-dione] | 10
16 | 13 | Cc1c(C(=O)N2CCC(O)CC2)sc2c1c(=O)n(CCc1ccccc1Cl)c(=O)n2CCC(F)(F)F [Example 6, 3-[2-(2-Chlorophenyl)ethyl]-6-[(4-hydroxypiperidin-1-yl)carbonyl]-5-methyl-1-(3,3,3-trifluoropropyl)thieno [2,3-d]pyrimidine-2,4(1H,3H)-dione] | 27
17 | 25 | Cc1c(C(=O)N2CCC(O)CC2)sc2c1c(=O)n(CCc1ccccc1F)c(=O)n2CCC(F)(F)F [Example 4, 3-[2-(2-Fluorophenyl)ethyl]-6-[(4-hydroxypiperidin-1-yl)carbonyl]-5-methyl-1-(3,3,3-trifluoropropyl)thieno[2,3-d]pyrimidine-2,4(1H,3H)-dione] | 39
18 | 25 | CCn1c(=O)c2c(C)c(C(=O)N3CCC(C)(O)CC3)sc2n(CCC(F)(F)F)c1=O [Example 21, 3-Ethyl-6-[(4-hydroxy-4-methylpiperidin-1-yl)carbonyl]-5-methyl-1-(3,3,3-trifluoropropyl)thieno [2,3-d]pyrimidine-2,4(1H,3H)-dione] | 69
19 | 8.7 | CCc1c(C(=O)N2CCC(C)(O)CC2)sc2c1c(=O)n(CC)c(=O)n2CCC(F)(F)F [Example 88, 3,5-Diethyl-6-[(4-hydroxy-4-methylpiperidin-1-yl)carbonyl]-1-(3,3,3-trifluoropropyl)thieno[2,3-d]pyrimidine-2,4(1H,3H)-dione] | 9
20 | 37 | Cc1c(C(=O)N2CCC(O)CC2)sc2c1c(=O)n(CCc1ccccc1)c(=O)n2CCC(F)(F)F [Example 1, 6-[(4-Hydroxypiperidin-1-yl)carbonyl]-5-methyl-3-(2-phenylethyl)-1-(3,3,3-trifluoropropyl)thieno[2,3-d]pyrimidine-2,4(1H,3H)-dione] | 59
21 | 16 | Cc1c(C(=O)N2CCNC(=O)C2)sc2c1c(=O)n(CCc1ccccc1Cl)c(=O)n2CCC(F)(F)F [Example 31, 3-[2-(2-Chlorophenyl)ethyl]-5-methyl-6-[(3-oxopiperazin-1-yl)carbonyl]-1-(3,3,3-trifluoropropyl)thieno[2,3-d]pyrimidine-2,4(1H,3H)-dione] | 16
22 | 20 | Cc1ccccc1CCn1c(=O)c2c(C)c(C(=O)N3CCC(O)CC3)sc2n(CCC(F)(F)F)c1=O [Example 8, 6-[(4-Hydroxypiperidin-1-yl)carbonyl]-5-methyl-3-[2-(2-methylphenyl)ethyl]-1-(3,3,3-trifluoropropyl)thieno[2,3-d]pyrimidine-2,4(1H,3H)-dione] | 34
23 | 12 | O=C(c1sc2c(c1C(F)F)c(=O)n(CCc1ccccc1)c(=O)n2CCC(F)(F)F)N1CCC(O)(CO)CC1 [Example 86, 5-(Difluoromethyl)-6-{[4-hydroxy-4-(hydroxymethyl)piperidin-1-yl]carbonyl}-3-(2-phenylethyl)-1-(3,3,3-trifluoropropyl)thieno[2,3-d]pyrimidine-2,4(1H,3H)-dione] | –
24 | 37 | CCn1c(=O)c2c(C(F)F)c(C(=O)N3CCC(C)(O)CC3)sc2n(CCC(F)(F)F)c1=O [Example 124, 5-(Difluoromethyl)-3-ethyl-6-[(4-hydroxy-4-methylpiperidin-1-yl)carbonyl]-1-(3,3,3-trifluoropropyl)thieno[2,3-d]pyrimidine-2,4(1H,3H)-dione] | –
